Measurements published in ChEMBL document CHEMBL1201862, “PubChem BioAssay data set” (2004).
Calls of active or inactive are those of the source.

Experiments:
[1] = biological target: Serine/threonine-protein kinase PAK 1 (Homo sapiens, UniProt Q13153); type: functional
Aurora kinase A = Aurora kinase A (Homo sapiens, UniProt O14965); type: functional;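 note: value from the Navigating the Kinome kinase panel profiling, panel entry STK6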
[2] = biological target: Casein kinase I isoform alpha (Homo sapiens, UniProt P48729); type: functional
[3] = biological target: Mitogen-activated protein kinase kinase kinase kinase 5 (Homo sapiens, UniProt Q9Y4K4); type: functional;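 note: measured as one member of a kinome-spanning kinase panel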
[4] = biological target: Receptor-type tyrosine-protein kinase FLT3 (Homo sapiens, UniProt P36888); type: functional;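 note: FLT3 was tested as one member of a kinome-wide kinase panel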
[5] = biological target: Inhibitor of nuclear factor kappa-B kinase subunit beta (Homo sapiens, UniProt O14920); type: functional
[6] = biological target: cAMP-dependent protein kinase catalytic subunit alpha (Homo sapiens, UniProt P17612); type: functional
[7] = biological target: RAC-alpha serine/threonine-protein kinase (Homo sapiens, UniProt P31749); type: functional;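 note: AKT1 affinity measured as one member of a kinome-wide kinase profiling panel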
[8] = biological target: T1, Dual specificity tyrosine-phosphorylation-regulated kinase 3 (Homo sapiens, UniProt O43781); type: functional;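 note: measured as one member of a broad kinase panel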
T1 sequence (O43781 whole entry): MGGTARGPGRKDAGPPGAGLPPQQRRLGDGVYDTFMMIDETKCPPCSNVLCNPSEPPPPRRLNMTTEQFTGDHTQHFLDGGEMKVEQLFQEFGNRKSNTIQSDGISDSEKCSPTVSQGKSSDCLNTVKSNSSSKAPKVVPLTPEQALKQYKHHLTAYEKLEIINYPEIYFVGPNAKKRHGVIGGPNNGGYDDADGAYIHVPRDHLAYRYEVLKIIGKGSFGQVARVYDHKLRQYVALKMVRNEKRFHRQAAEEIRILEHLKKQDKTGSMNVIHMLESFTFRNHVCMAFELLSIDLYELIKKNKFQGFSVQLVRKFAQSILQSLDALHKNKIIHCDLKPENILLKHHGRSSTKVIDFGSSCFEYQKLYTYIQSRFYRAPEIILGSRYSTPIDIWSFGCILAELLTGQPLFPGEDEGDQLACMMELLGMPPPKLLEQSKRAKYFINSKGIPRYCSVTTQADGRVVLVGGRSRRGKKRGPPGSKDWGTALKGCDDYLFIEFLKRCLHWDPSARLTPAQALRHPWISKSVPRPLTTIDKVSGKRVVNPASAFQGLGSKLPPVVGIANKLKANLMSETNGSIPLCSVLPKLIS

[9] = biological target: Serine/threonine-protein kinase Nek4 (Homo sapiens, UniProt P51957); type: functional
[10] = biological target: Mitogen-activated protein kinase kinase kinase 20 (Homo sapiens, UniProt Q9NYL2); type: functional
Aurora kinase B = Aurora kinase B (Homo sapiens, UniProt Q96GD4); type: functional
[11] = biological target: Fibroblast growth factor receptor 1 (Homo sapiens, UniProt P11362); type: functional
[12] = biological target: Insulin-like growth factor 1 receptor (Homo sapiens, UniProt P08069); test: Navigating the Kinome. Panel member name: IGF1R; type: functional
[13] = biological target: T2, Mannose-6-phosphate isomerase (Homo sapiens, UniProt P34949); test: human PMI inhibitors, high substrate, primary screen, biochemical, fluorescence intensity, high mannose 6-phosphate (AID 1220)
T2 sequence (P34949 whole entry): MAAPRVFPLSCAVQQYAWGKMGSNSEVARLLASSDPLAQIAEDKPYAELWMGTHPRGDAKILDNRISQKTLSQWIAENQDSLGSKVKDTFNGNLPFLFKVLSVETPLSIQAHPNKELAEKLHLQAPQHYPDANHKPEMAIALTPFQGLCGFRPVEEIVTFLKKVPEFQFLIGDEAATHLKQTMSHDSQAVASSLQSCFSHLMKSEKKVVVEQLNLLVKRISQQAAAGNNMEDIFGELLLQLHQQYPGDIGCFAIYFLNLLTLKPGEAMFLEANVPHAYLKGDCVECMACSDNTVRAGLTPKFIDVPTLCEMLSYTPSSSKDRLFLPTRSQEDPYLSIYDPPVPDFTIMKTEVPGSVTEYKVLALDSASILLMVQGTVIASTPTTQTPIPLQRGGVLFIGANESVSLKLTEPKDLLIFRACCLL

[14] = biological target: T3, Tyrosine-protein phosphatase non-receptor type 22 (Homo sapiens, UniProt Q9Y2R2); type: functional;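 note: confirmatory dose-response retesting of primary uHTS hits against LYP; potency is for inhibition of phosphatase activity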
T3 sequence (Q9Y2R2 whole entry): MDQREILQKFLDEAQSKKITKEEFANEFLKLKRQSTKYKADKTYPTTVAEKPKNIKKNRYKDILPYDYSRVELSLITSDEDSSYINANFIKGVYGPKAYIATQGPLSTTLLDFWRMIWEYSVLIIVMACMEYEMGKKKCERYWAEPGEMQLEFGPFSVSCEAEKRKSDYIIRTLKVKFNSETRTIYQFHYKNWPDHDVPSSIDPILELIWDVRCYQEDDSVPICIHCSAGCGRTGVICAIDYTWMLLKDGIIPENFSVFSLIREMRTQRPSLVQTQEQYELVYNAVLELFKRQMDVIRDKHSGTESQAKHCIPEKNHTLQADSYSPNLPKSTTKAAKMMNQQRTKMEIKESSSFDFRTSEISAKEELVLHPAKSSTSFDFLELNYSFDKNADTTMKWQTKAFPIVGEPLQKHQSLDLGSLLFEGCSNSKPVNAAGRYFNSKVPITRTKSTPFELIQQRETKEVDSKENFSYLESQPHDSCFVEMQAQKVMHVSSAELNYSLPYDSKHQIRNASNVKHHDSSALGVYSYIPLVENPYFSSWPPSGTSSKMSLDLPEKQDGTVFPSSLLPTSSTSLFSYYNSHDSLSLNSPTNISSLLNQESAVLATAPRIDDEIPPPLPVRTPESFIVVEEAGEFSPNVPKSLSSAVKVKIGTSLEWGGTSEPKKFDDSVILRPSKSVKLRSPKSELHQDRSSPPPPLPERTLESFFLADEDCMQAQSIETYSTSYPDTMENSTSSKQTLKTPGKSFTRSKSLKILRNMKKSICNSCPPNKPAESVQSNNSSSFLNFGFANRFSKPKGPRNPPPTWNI

Cysteine protease ATG4B = Cysteine protease ATG4B (Homo sapiens, UniProt Q9Y4P1); type: functional;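 note: Fluorescence-based dose-response confirmation assay measuring inhibition of ATG4B activity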
[15] = inhibitors of PGC1a acetylation in cells, dose response, cell-based, cherry-picked samples (AID 720514); type: functional;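 note: potency may reflect raised or lowered acetylation signal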
[16] = Shn3 3'UTR reporter inhibitors, dose response, cell-based, Clone20 osteoblasts, firefly luciferase, cherry-picked (AID 624132); type: functional;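 note: firefly luciferase luminescence from reporter carrying the Shn3 3'UTR in osteoblasts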

Aurora kinase A, sequence (O14965 whole entry, canonical isoform): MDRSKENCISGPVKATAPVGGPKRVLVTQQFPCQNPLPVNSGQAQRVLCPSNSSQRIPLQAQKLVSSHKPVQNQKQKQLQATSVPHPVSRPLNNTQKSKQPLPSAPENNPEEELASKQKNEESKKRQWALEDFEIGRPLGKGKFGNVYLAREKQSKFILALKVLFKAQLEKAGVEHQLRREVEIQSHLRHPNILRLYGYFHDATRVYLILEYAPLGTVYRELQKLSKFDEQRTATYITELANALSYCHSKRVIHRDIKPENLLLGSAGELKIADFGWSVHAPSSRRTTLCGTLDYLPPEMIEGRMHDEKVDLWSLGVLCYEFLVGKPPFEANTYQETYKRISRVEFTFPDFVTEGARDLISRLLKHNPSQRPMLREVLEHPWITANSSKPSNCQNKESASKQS
Receptor-type tyrosine-protein kinase FLT3, sequence (P36888 whole entry): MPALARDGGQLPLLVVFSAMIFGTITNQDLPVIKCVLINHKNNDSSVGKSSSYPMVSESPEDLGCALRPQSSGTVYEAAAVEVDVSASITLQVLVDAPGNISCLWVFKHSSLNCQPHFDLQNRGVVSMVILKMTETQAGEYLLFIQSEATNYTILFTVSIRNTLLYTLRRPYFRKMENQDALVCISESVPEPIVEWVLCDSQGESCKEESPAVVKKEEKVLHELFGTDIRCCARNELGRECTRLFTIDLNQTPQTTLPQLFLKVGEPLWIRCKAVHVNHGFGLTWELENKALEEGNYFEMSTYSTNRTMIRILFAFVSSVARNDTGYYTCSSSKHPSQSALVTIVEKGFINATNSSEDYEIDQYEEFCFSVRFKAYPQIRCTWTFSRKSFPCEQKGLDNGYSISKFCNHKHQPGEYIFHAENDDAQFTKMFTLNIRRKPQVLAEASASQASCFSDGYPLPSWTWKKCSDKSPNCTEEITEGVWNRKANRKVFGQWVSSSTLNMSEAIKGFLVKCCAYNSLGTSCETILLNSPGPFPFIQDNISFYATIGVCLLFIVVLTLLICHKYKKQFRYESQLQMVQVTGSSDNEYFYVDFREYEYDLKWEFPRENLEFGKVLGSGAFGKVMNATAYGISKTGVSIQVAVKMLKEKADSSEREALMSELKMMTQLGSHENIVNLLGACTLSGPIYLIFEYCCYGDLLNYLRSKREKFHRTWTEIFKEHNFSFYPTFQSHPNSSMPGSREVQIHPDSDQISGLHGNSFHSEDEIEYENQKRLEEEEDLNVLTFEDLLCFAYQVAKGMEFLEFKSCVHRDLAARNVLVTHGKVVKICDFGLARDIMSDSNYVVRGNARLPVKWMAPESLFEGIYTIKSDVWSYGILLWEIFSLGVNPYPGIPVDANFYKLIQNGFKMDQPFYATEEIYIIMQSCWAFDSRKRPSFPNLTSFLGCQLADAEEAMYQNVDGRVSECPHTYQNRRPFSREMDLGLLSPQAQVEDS
Cysteine protease ATG4B, sequence (Q9Y4P1 whole entry): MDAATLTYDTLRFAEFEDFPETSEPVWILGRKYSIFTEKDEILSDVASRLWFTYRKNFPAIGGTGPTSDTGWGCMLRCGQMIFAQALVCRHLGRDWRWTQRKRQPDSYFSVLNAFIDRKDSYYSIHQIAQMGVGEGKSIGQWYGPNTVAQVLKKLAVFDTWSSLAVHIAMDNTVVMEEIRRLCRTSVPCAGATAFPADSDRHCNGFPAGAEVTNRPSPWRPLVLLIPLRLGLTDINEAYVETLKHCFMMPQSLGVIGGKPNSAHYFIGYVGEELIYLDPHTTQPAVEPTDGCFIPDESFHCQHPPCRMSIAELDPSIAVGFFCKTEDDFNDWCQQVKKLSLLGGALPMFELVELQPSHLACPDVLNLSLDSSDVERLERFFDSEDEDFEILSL
Insulin-like growth factor 1 receptor, sequence (P08069 31-736 limits assumed): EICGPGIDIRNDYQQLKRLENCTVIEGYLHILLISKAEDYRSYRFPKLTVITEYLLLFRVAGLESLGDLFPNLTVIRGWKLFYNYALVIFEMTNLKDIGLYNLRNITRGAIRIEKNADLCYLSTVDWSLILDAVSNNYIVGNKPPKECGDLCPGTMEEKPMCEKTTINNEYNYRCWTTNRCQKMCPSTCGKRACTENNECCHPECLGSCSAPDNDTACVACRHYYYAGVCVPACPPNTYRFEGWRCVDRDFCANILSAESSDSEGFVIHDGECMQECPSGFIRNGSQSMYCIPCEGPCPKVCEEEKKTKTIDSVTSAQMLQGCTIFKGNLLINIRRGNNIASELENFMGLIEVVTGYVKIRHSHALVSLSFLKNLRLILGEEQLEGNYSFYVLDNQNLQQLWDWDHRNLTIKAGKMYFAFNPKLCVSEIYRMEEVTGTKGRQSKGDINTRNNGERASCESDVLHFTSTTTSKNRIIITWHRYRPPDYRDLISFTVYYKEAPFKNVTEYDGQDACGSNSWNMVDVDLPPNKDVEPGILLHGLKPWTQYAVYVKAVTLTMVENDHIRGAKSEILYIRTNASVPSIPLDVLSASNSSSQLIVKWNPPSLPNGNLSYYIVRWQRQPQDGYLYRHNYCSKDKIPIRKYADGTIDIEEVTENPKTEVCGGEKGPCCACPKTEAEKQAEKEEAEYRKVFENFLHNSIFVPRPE
Insulin-like growth factor 1 receptor, sequence (P08069 741-1367 limits assumed): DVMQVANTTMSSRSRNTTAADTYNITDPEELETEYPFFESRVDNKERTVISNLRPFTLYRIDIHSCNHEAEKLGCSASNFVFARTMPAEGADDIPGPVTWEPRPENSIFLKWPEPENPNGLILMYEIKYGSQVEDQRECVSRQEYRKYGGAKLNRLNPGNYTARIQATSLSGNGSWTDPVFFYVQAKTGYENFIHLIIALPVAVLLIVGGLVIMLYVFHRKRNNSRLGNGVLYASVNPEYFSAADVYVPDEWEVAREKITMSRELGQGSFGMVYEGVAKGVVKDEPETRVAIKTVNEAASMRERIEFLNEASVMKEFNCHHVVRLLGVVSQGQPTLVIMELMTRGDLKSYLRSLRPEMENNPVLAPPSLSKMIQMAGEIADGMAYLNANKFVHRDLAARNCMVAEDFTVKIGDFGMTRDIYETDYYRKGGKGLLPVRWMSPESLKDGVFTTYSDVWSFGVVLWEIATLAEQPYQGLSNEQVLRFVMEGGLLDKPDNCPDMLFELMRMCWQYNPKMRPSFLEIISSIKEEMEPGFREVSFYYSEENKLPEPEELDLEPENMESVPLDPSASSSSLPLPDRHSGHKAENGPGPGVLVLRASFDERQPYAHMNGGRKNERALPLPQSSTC
Serine/threonine-protein kinase PAK 1, sequence (Q13153 whole entry): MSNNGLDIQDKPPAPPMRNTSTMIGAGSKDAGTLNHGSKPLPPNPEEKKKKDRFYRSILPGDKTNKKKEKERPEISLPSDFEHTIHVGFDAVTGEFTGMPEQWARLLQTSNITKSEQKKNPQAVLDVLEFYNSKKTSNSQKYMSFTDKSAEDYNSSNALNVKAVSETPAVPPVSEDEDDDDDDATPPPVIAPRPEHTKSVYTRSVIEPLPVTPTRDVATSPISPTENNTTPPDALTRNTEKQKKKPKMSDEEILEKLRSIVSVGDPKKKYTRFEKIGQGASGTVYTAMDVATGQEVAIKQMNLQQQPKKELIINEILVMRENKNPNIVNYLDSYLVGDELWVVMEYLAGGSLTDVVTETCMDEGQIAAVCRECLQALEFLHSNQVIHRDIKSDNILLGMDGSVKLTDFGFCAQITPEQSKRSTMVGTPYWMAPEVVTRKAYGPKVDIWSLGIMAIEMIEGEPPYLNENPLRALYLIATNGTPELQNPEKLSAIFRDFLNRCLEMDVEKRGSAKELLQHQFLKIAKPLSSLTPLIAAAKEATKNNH
Serine/threonine-protein kinase Nek4, sequence (P51957 whole entry): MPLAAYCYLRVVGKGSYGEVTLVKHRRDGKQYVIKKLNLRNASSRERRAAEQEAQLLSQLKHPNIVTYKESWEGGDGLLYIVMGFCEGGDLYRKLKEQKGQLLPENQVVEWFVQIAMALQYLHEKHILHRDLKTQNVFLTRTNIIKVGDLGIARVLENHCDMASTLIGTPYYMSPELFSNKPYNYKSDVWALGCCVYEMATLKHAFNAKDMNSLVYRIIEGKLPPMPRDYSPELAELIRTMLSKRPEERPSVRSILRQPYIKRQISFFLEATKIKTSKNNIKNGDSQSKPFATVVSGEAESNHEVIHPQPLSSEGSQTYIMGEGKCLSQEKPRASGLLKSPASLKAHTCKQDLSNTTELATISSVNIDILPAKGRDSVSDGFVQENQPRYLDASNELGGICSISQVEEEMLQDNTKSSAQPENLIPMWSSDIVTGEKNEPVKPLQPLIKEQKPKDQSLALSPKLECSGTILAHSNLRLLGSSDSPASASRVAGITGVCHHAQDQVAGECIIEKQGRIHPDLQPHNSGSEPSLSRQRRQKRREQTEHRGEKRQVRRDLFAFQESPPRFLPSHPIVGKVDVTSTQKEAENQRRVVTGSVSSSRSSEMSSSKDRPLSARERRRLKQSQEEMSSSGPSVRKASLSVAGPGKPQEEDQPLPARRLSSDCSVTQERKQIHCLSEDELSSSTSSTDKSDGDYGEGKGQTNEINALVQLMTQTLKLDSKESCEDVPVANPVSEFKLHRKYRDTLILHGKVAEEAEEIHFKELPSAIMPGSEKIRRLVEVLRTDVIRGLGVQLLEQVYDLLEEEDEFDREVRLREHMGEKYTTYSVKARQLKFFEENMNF
RAC-alpha serine/threonine-protein kinase, sequence (P31749 whole entry): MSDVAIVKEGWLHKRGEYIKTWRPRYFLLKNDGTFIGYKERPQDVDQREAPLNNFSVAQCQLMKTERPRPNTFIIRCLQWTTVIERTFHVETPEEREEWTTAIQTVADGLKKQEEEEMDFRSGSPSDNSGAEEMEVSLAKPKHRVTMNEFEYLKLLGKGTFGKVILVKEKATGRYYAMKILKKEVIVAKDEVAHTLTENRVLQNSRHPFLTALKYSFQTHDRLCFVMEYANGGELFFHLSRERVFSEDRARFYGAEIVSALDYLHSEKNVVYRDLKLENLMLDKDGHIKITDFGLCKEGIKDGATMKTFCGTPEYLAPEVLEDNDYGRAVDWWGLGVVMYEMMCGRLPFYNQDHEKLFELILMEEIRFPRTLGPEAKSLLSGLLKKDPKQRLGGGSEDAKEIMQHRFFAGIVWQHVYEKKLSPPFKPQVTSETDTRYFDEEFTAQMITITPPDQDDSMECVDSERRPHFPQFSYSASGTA

Row | SMILES | Ki [1] | Ki (Aurora kinase A) | Ki [2] | Ki [3] | Ki [4] | Ki [5] | Ki [6] | Ki [7] | Ki [8] | Ki [9] | Ki [10] | Ki (Aurora kinase B) | Ki [11] | Ki [12] | IC50 [13] | IC50 [14] | IC50 (Cysteine protease ATG4B) | AC50 [15] | AC50 [16]
1 | COc1cc2ncn(-c3cc(OCc4ccccc4C(F)(F)F)c(C(N)=O)s3)c2cc1OC [GW843682X] | > 10 µM (inactive) | > 3.98 µM (inactive) | > 6.31 µM (inactive) | 0.2 µM (active) | 0.0501 µM (active) | > 3.16 µM (inactive) | > 7.94 µM (inactive) | > 7.94 µM (inactive) | > 6.31 µM (inactive) | > 6.31 µM (inactive) | > 7.94 µM (inactive) | > 6.31 µM (inactive) | 3.98 µM (active) | > 1 µM (inactive) | – | – | – | – | –
2 | CCCc1nc2c(=O)n(C)c(=O)nc-2n(C)n1 | – | – | – | – | – | – | – | – | – | – | – | – | – | – | 13.2 µM (active) | 1.78 µM (active) | 2.84 µM (active) | 2.95 µM (active) | 2.17 µM (active)
